One may read the bioavailability as dose-corrected exposure relative to a reference, in per cent. Usually Cmax stands for the maximum level reached in the sampled fluid or tissue. What is called AUC(0-inf) is total exposure, with the tail of the curve extrapolated. Broadly, the clearance is the volume of plasma or blood freed of the substance per unit of time. By IC50 is commonly meant the concentration needed to halve the response being measured.

1 compound from ChEMBL document CHEMBL3585315, “Discovery of mammalian target of rapamycin (mTOR) kinase inhibitor CC-223” (J Med Chem, 2015) can be followed below.

A short description of data set [1]: Oral bioavailability in rat at 5 mg/kg. Conditions: in vivo; call rule not given here. Type of data set: ADME, organism-based.
Data set [2] is described as follows: Cmax in rat at 5 mg/kg, po. The format is ADME, organism-based. Set-up: dose 5 mg/kg, route oral. The note with it: in vivo.
For data set [3], the species on record is Mus musculus. The data set can be described thus: animal or person. The note with it: PC-3, po, 24 h, read-out: INH.
The species entered for data set [4] is Mus musculus. The data set can be described thus: animal or person. The note with it: PC-3, po, 8 h, read-out: INH.
Data set [5] is described as follows: AUC (0 to infinity) in rat at 5 mg/kg, po. Type of data set: ADME, organism-based. Set-up: dose 5 mg/kg, time infinity, route oral. The note with it: in vivo.
Data set [6] concerns PC-3. The data set can be described thus: Antitumor activity against human PC3 cells xenografted in mouse assessed as tumor volume reduction at 25 mg/kg, po qd for 21 days relative to control. Type of data set: functional. Set-up: scale not given: the % may be the effect or the level left. In general terms: In xenograft studies the graft and the host belong to different species.

In data set [7] the test system is Salmonella typhi. The data set can be described thus: Mutagenicity in Salmonella typhi by Ames test. The note with it: salmonella enterica subsp. enterica serovar […]. Type of data set: toxicity, organism-based. Background: The Ames test detects mutagens through reverse mutation in bacteria.
Data set [8] in a line: Inhibition of CYP450 (unknown origin) up to 10 uM. Type of data set: ADME. Conditions: human.
Data set [9] can be described thus: Genotoxicity in mouse erythrocytes by micronucleus test. Type of data set: toxicity, cell-based. Conditions: erythrocyte.
Data set [10] has as its system PC-3. The note with it: Homo sapiens.
The species entered for data set [11] is Mus musculus. The data set is described as follows: animal or person. Conditions: PC-3, po, 4 h, read-out: INH.
A short description of data set [12]: Clearance in rat at 2 mg/kg, iv. Type of data set: ADME, organism-based. Conditions: in vivo.
The test system of data set [13] is PC-3. The note with it: Homo sapiens, TDE = time-dependent effect.
The species entered for data set [14] is Mus musculus. The data set can be described thus: animal or person. Conditions: PC-3, po, 4 h, read-out: INH. This is another data set of the same source.
The species named for data set [15] is Mus musculus. The data set can be described thus: animal or person. Conditions: PC-3, po, 8 h, read-out: INH. This is another data set of the same source.
Data set [16] is filed under the species Mus musculus. The data set is described as follows: animal or person. The note with it: PC-3, po, 24 h, read-out: INH. The source holds these as a separate data set.
Data set [17] concerns the target Vascular endothelial growth factor receptor 3 (Homo sapiens, UniProt P35916). The data set can be described thus: Inhibition of Flt4 (unknown origin).

Vascular endothelial growth factor receptor 3, sequence (P35916 whole entry): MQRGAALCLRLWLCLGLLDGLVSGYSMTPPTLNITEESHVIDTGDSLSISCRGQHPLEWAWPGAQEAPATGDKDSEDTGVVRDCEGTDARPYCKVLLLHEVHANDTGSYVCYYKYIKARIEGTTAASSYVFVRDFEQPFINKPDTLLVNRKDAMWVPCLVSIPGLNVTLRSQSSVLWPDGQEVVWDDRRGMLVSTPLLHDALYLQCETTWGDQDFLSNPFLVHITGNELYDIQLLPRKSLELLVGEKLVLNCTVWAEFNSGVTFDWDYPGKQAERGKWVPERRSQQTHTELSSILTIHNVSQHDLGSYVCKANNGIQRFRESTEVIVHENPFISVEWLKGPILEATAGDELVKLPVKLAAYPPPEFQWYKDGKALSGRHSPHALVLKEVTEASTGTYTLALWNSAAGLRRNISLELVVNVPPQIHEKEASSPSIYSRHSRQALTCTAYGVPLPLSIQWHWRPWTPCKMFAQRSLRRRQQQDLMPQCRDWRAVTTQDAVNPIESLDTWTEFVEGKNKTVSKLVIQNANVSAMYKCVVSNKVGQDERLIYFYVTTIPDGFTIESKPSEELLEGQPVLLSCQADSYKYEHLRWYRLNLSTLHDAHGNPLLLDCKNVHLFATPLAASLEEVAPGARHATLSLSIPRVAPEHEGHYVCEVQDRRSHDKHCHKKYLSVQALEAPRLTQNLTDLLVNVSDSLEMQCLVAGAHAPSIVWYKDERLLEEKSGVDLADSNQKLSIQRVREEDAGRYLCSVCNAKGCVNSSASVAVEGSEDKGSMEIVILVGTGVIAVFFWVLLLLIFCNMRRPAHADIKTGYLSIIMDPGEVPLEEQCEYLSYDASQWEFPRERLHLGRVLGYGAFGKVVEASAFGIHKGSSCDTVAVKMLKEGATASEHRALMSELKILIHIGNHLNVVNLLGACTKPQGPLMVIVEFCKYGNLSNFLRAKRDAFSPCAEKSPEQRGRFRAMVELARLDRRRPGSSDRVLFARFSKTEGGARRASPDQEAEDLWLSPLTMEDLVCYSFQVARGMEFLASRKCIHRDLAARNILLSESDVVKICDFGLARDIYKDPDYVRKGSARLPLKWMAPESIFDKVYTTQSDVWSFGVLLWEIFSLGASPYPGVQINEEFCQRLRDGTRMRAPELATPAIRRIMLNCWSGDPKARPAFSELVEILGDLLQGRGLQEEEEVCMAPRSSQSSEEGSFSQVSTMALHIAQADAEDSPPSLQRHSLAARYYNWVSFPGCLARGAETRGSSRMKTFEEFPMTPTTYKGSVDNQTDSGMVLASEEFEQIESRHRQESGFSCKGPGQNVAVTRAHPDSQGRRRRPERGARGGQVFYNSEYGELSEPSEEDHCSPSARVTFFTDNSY

In turn, `CO[C@H]1CC[C@H](N2C(=O)CNc3ncc(-c4ccc(C(C)(C)O)nc4)nc32)CC1` [ONATASERTIB] gave a bioavailability in data set [1] of 59%. In data set [2], this compound registered a Cmax of 2.9 µM. Moreover, the inhibition in vivo at 100 mg/kg came out at 91% in [3]; 82% in data set [4]; 80% in data set [11]; 91% in [14]; 92% in [15]; 86% in data set [16]. The compound also showed a total exposure AUC(0-inf) in data set [5] of 26 µM·h. In addition, the figures for the Activity in data set [6], in data set [7] and in [9] were 87%, “Non-toxic” and “Non-toxic”, respectively. Further, the “inhibition (INH)” value in data set [8] is “Not Active”. For the same compound, the TGI result in [10] was “Dose-dependent effect”; in data set [13], “tde”. Further, in data set [12], the clearance was determined as 0.294 L/h/kg. In [17], this compound showed an IC50 of 0.651 µM.
